Columns and labels:
Assay type in all cases: in vivo, mouse
oligodendrocytes = experiment: Oligodendrocyte loss by CNPase immunostaining of dorsal columns; conditions: 31 for rat IgG and 26 for PBS treated control mice
Excerpt: Frozen sections from lumbar spinal cord (10 μm) were acetone-fixed and immunostained for oligodendrocyte content with an antibody against CNPase (Sigma; diluted 1:100); for axonal damage with an antibody against non-phosphorylated neurofilament-H (SM 1-32; Stemberger Monoclonals Incorporated, Lutherville, Md., USA; diluted 1:1000), and for GluR2 and NR1 content using mouse mAbs obtained from Zymed Laboratories Inc., Carlton, San Francisco, Calif. Antibody staining was visualized with an avidin:biotinylated enzyme complex (Vector Laboratories, Burlingame, Calif., USA). Sections were viewed under a light microscope, and cells stained with the anti-CNPase and SM 1-32 antibodies were counted.
To evaluate the effects of the different treatment regimes on the loss of oligodendrocytes, a key cellular target in demyelinating diseases of the CNS, oligodendrocytes were enumerated by immunohistochemical staining of spinal cord sections and the number of oligodendrocytes within the dorsal columns of […] transverse sections were counted (FIG. 5B), and reductions in oligodendrocyte numbers were calculated and expressed as % loss of oligodendrocytes per dorsal section (FIG. 5C). […]

[1] = test system: apoptotic cells in spinal cord of EAE mice; experiment: In situ detection of apoptotic cells in the CNS by TUNEL assay; conditions: spinal cord sections, compared to mice mock treated with PBS or rat IgG
Description: Cells undergoing apoptosis were identified using the in situ TUNEL assay. Five-μm thick serial sections of brain and spinal cord were prepared to detect apoptosis by TUNEL (i.e., terminal deoxynucleotidyl transferase-mediated deoxyuridine triphosphate-digoxigenin nick end labeling) staining using the In Situ Apoptosis Detection Kit from Boehringer Mannheim (Germany). Briefly, frozen sections were fixed in 4% paraformaldehyde, permeabilized in 0.1% Triton X-100, incubated with 20 μL TUNEL reagent for 60 minutes at 37° C., and then examined by fluorescence microscopy. Adjacent sections were counterstained with hematoxylin and mounted onto poly-L-lysine coated slides to allow the total number of nucleated cells to be counted. The percentage of apoptotic cells was assessed in ten randomly selected fields viewed at 40× magnification. The apoptotic index (AI) was calculated as follows: AI=number of apoptotic (TUNEL-positive) cells×100/total number of nucleated cells.

GluR2 = GluR2 subunit expression in spinal cord; conditions: spinal cord of EAE mice, immunohistochemistry and Western blot
Description: PBS-perfused spinal cords were homogenized in lysis buffer (50 mM Tris pH 7.4, 100 μM EDTA, 0.25 M sucrose, 1% sodium dodecyl sulfate [SDS], 1% Nonidet P-40 [NP40], 1 μg/mL leupeptin, 1 μg/mL pepstatin A, and 100 μM phenylmethylsulfonylfluoride) at 4° C. using a motor-driven homogenizer (Virtus, Gardiner, N.Y.). […] The membranes were washed thrice with TBS-T and incubated with horseradish peroxidase-conjugated anti-mouse IgG (Sigma) diluted 1:5000 in TBS-T. Immunoreactivity was detected by Enhanced Chemiluminescence (Amersham International plc. England) and autoradiography.

| Molecule | % loss of oligodendrocytes per dorsal section (oligodendrocytes) | reductions in the numbers of apoptotic cells [1] | GluR2 expression (GluR2) |
| --- | --- | --- | --- |
| Gly-Pro-Glu [GPE] | 14% | ~30% | negligible effect |
| NS(=O)(=O)c1cccc2c1c([N+](=O)[O-])cc1nc(O)c(O)nc12 [NBQX, 2,3-dihydroxy-6-nitro-7-sulfamoylbenzo(f)quinoxaline] | 13% | ~30% | downregulates the AMPA receptor |

— patent US7192931B2, “Treatment of demyelinating diseases” (Neuren Pharmaceuticals Ltd., priority 2000, dated 2007)
